# Values joined by “and” are separate entries in the source; they are usually repeats but may differ in a detail not shown here. Identical values can stand only once. Like-named read-outs stand apart in the source and are kept apart here.
# Assays:
# [1] = system: pan-HDACs (HeLa cell extract); assay: In vitro HDAC enzyme inhibition, HeLa cell nuclear extract (Fluor de Lys); type: biochemical; settings: ± margin of error of 95% confidence interval
# Description: (§1) In vitro HDAC enzyme inhibition assays utilized HeLa cell extract for pan-HDACs with the substrate Fluor-Lys following the manufacturer’s protocol (BIOMOL/ENZO, Plymouth Meeting, PA). For isoform assays, purified HDAC1, HDAC3, and HDAC6 recombinant proteins produced by expressing epitope-tagged full-length proteins in the sf9 baculovirus expression vector system were purchased from PBS Bioscience (San Diego, CA). […] The reaction commenced with the addition of HDAC substrate at room temperature and proceeded for 30 minutes. Termination of the reaction was achieved by adding 50 μL of Fluor de Lys (TM) Assay Developer. The fluorophore was excited at 360 nm and emitted light at 460 nm. Relative fluorescence was measured using a FlexStation II plate reader (Molecular Devices, Sunnyvale, CA).
# HDAC1 = molecular target: T1, HDAC1 (Homo sapiens, UniProt Q13547); assay: In vitro HDAC isoform inhibition, purified recombinant HDAC1; type: biochemical; settings: purified recombinant protein; ± margin of error of 95% confidence interval; read-out: IC50 HDAC inhibition activity in vitro, HDAC 1
# T1 construct: purchased PBS Bioscience [sic] (San Diego, CA); host or cells: Sf9 insect cells / baculovirus
# Description: as §1
# HDAC3 = molecular target: T2, HDAC3 (Homo sapiens, UniProt O15379); assay: In vitro HDAC isoform inhibition, purified recombinant HDAC3; type: biochemical; settings: purified recombinant protein; ± margin of error of 95% confidence interval; read-out: IC50 HDAC inhibition activity in vitro, HDAC 3
# T2 construct: purchased PBS Bioscience [sic] (San Diego, CA); host or cells: Sf9 insect cells / baculovirus
# Description: as §1
# HDAC8 = HDAC8 (Homo sapiens, UniProt Q9BY41); assay: HDAC8 activity inhibition (data not shown); type: biochemical
# HDAC4 = HDAC4 (Homo sapiens, UniProt P56524); assay: HDAC4 activity inhibition (data not shown); type: biochemical; settings: read-out: IC50 class IIa HDAC4 inhibition
# MCF7 (ER+) cells = assay: Cell growth inhibition (CCK8 cytotoxicity assay), MCF7; type: cell-based; settings: Homo sapiens, 48 h treatment, read-out: Average EC50 ± SD, cell growth inhibition
# T47D (ER+) cells = assay: Cell growth inhibition (CCK8 cytotoxicity assay), T47D; type: cell-based; settings: 48 h treatment, read-out: Average EC50 ± SD, cell growth inhibition
# MDA-MB-231 (TNB) cells = assay: Cell growth inhibition (CCK8 cytotoxicity assay), MDA-MB-231; type: cell-based; settings: 48 h treatment, read-out: Average EC50 ± SD, cell growth inhibition
# HCC-1937 (TNB) cells = assay: Cell growth inhibition (CCK8 cytotoxicity assay), HCC-1937; type: cell-based; settings: 48 h treatment, read-out: Average EC50 ± SD, cell growth inhibition
# [2] = system: ER+ BC cells (MCF-7 and T47D); assay: Cell growth inhibition, ER+ breast cancer cells stated together; type: cell-based
# Description: (§2) Prism-GraphPad software was used to analyze data.
# [3] = system: triple negative breast cancer cells; assay: Cell growth inhibition, triple negative breast cancer cells stated together; type: cell-based; settings: range over triple negative breast cancer cells; read-out: effective growth inhibition concentrations (EC50)
# Description: as §2
# MCF7 cells [4] = assay: Cell cycle analysis by flow cytometry (FACS); type: cell-based
# Protocol: Cells were treated with SP-1-303 for 24, 48, and 72 hours. DMSO and ionizing radiation (IR) were used on controls. The cell cycle distributions were analyzed by flow cytometry. The cells were harvested at the indicated times, washed twice with cold phosphate-buffered saline (PBS), and fixed with citrate/DMSO buffer for overnight. The cells were resuspended in PBS containing 40 μg/ml of DNase-free RNase A and 50 μg/ml of propidium iodide, and the cell cycle distributions were measured in a fluorescence-activated cell sorter (FACSort) from Becton Dickinson. DNA content was quantified using ModFit LT 3.0 software (Verity Software House, Inc).
# MCF7 cells [5] = assay: Radiation clonogenic survival assay, MCF7; type: cell-based; settings: 0.3 μM for 24 h then graded γ-radiation, DMSO control 1.5 Gy
# Protocol: Logarithmically growing cells were treated with vehicle (0.1% Dimethyl Sulfoxide) or SP-1-303 (0.3 μM) for 24 h followed by sham or γ-radiation using a Mark-30 irradiator with a 137Cs source at a fixed dose rate of 2.71 Gy/min. Cells were exposed to graded doses at room temperature. After 10–14 days, cells were fixed and stained with crystal violet, and colonies were counted. The surviving fractions of treated cells were normalized using the plating efficiencies of untreated controls. Radiation survival curves were generated by fitting to the single-hit, multitarget model.
# p-ATM/S1981 = assay: Western blot, phosphorylation of ATM; type: cell-based; settings: MCF7 and MDA-MB-231; 1 μM; within 0.5 h
# Description: (§3) Following treatment of cells with SP-1-303 over a time course, total or nuclear proteins were extracted and analyzed on 4–20% trisglycine gradient sodium dodecyl sulfate polyacrylamide gel electrophoresis (SDS-PAGE). Subsequently, membranes were probed with antibodies targeting specific proteins in accordance with the manufacturers’ protocols, including ATM (ab78), p-BRCA1 (ab90528), BRCA1 (ab191042), p-p53/S15 (ab1431), acetylated H3K9 (ab12179) from Abcam, as well as p-ATM (# 5883) and p53 (#9282) from Cell Signaling, α-tubulin (T6793) and β-actin (A3854) from Sigma-Aldrich, ER-α (cat# MA1-80216, Invitrogen) and HDAC2 (BML-SA402. Enzo). Protein images were captured using ECL Prime Western Blotting Detection Reagents (Cat#. RPN2232, Amersham) and the Amersham Imager 600. For immunofluorescent analysis, formalin fixed cells were permeabilized with 0.1% Triton X-100 in TBS for 10 minutes at room temperature, followed by blocking with 1% Blocker BSA for 15 minutes at room temperature. Cells were then probed with a phospho-ATM monoclonal antibody (MA5-15185) and DyLight 488 goat anti-mouse IgG secondary antibody at room temperature. Actin was stained with DyLight 554 phalloidin, while nuclei were stained with 4’,6-diamidino-2-phenylindole dye (DAPI). Images were captured using a Nikon Epi Fluorescent microscopy.
# ER-α = assay: Western blot of nuclear extracts, ER-α expression; type: cell-based; settings: MCF7; 1 μM; from 2h to 6h
# Description: as §3
# p53 = assay: Western blot of nuclear extracts, p53 expression; type: cell-based; settings: 1 μM, time course
# Description: as §3
# phosphorylated BRCA1 = assay: Western blot, phosphorylated BRCA1; type: cell-based; settings: 1 μM
# Description: as §3
# HDAC4, sequence (P56524 whole entry, species assumed): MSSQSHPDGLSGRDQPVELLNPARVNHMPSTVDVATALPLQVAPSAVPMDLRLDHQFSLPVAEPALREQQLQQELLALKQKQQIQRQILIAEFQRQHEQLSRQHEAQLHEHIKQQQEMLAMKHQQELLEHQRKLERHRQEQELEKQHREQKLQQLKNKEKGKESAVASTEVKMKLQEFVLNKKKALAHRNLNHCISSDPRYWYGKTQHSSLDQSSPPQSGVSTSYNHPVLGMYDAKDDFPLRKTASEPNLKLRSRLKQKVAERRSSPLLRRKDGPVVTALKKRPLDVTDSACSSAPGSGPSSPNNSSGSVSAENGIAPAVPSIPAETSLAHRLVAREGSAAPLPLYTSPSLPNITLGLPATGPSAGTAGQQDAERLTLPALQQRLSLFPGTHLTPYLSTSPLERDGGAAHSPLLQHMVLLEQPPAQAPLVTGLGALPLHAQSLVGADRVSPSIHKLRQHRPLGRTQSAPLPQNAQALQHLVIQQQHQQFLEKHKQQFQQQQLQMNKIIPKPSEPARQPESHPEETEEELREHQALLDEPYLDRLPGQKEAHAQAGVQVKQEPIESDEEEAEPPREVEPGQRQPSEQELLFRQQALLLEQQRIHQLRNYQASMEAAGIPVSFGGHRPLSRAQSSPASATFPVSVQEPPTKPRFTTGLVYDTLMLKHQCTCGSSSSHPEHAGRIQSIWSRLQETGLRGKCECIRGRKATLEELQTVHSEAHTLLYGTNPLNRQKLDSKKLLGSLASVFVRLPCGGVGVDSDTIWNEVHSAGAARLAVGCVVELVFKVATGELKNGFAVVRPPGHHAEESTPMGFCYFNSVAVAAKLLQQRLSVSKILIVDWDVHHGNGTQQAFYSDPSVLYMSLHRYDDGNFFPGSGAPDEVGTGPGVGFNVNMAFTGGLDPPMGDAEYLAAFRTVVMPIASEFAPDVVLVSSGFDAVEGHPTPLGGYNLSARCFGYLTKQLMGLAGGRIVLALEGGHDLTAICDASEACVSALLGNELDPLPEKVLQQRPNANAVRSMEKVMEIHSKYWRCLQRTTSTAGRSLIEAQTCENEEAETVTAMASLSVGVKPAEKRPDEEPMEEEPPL
# T2 sequence (O15379 whole entry, canonical isoform): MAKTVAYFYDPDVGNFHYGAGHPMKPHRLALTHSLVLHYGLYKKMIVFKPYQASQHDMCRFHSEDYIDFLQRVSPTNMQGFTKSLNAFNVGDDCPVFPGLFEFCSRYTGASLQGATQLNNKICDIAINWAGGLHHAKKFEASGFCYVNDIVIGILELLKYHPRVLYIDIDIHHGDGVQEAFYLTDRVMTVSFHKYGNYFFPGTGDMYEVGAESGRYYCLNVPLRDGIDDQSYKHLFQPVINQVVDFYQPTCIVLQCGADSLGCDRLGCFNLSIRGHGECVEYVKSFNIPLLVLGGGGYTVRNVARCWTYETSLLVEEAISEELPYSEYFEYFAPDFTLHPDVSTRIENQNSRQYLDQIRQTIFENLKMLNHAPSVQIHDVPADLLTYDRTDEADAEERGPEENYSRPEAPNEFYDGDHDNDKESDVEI
# T2 sequence (Q9Y618 395-489 partner limits assumed): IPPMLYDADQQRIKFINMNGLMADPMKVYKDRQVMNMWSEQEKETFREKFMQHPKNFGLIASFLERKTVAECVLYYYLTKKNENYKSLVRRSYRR
# HDAC8, sequence (Q9BY41 whole entry, species assumed): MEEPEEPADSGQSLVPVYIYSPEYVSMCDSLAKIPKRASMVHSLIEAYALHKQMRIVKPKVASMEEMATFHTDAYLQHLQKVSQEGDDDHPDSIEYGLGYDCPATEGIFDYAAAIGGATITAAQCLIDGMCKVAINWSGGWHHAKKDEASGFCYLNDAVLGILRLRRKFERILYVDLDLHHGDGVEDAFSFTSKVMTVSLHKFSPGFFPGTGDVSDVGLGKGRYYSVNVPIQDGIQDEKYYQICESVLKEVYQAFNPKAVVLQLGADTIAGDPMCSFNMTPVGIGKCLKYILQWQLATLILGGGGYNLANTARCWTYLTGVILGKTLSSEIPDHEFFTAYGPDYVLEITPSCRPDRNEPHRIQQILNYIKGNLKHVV
# T1 sequence (Q13547 whole entry, canonical isoform): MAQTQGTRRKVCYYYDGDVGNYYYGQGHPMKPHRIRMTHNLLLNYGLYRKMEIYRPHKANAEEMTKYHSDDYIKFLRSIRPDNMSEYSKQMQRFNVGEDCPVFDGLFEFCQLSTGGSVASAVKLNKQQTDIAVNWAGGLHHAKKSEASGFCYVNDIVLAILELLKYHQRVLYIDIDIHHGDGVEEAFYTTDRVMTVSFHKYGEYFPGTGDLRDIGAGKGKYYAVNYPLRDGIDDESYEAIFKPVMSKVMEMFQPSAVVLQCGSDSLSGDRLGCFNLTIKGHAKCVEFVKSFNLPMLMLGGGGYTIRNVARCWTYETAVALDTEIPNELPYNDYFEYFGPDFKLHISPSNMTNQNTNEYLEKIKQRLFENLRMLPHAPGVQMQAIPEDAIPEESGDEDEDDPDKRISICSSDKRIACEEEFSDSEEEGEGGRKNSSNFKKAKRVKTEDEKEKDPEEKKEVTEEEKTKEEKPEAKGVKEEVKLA
smiles,measurement,setting,value
Cc1[nH]c2ccccc2c1C1=C(c2c(C)[nH]c3ccccc23)C(=O)N(CCCCCCC(=O)NO)C1=O [SP-1-303],IC50,[1],120 ± 58 nM
same,IC50,HDAC1,12 ± 1 nM
same,IC50,HDAC3,14 ± 2 nM
same,IC50,HDAC8,310 nM
same,IC50,HDAC4,> 20000 nM
same,EC50,MCF7 (ER+) cells,340 ± 122 nM
same,EC50,T47D (ER+) cells,321 ± 27 nM
same,EC50,"T47D (ER+) cells; Homo sapiens, T47D, 48 h",320 nM
same,EC50,MDA-MB-231 (TNB) cells,1220 ± 243 nM
same,EC50,"MDA-MB-231 (TNB) cells; Homo sapiens, MDA-MB-231, 48 h",1200 nM
same,EC50,HCC-1937 (TNB) cells,2480 nM
same,EC50,"HCC-1937 (TNB) cells; Homo sapiens, HCC1937, 48 h",2500 nM
same,inhibition of ER+ BC cell growth compared to ER- TNBC cell growth,[2],4-8 fold
same,potency in ER+ cell lines relative to SAHA,[2]; more potent than SAHA,10 fold
same,EC50,"[2]; range over MCF-7 and T47D cells, read-out: effective growth inhibition concentrations (EC50)",320 to 340 nM
same,EC50,[3],1200 to 2500 nM
same,% Cells in G1,MCF7 cells [4]; 24 HR,89.44%
same,% Cells in G2/M,MCF7 cells [4]; 24 HR,6.19%
same,% Cells in S,MCF7 cells [4]; 24 HR,4.37%
same,% Cells in G2/M,MCF7 cells [4]; 24 HR + IR,5.12%
same,% Cells in S,MCF7 cells [4]; 24 HR + IR,3.91%
same,% Cells in G1,MCF7 cells [4]; 24 HR + IR (combination with radiation),91% and 90.97%
same,% Cells in G1,MCF7 cells [4]; 48 HR,71.02%
same,% Cells in G2/M,MCF7 cells [4]; 48 HR,6.75%
same,% Cells in S,MCF7 cells [4]; 48 HR,22.24%
same,% Cells in G1,MCF7 cells [4]; 72 HR,81.35%
same,% Cells in G2/M,MCF7 cells [4]; 72 HR,6.21%
same,% Cells in S,MCF7 cells [4]; 72 HR,12.45%
same,"D0, radiation clonogenic survival",MCF7 cells [5],1.3 Gy
same,phosphorylation of ATM/S1981,p-ATM/S1981,significantly enhanced
same,ER-α expression,ER-α,gradual reduction
same,expression of p53,p53; MCF7,gradual increase
same,expression of p53,p53; MDA-MB-231,no significant change
same,phosphorylated BRCA1,"phosphorylated BRCA1; MCF7, within 1h to 2h",induction
same,phosphorylated BRCA1,phosphorylated BRCA1; MDA-MB-231,without significant alteration

# From PMC11249239 (PLOS ONE, 2024)
